Two compounds from paper PMC10937556, “Phenolic phytochemistry, in vitro, in silico, in vivo, and mechanistic anti-inflammatory and antioxidant evaluations of Habenaria digitata” (Frontiers in Pharmacology, 2024) can be followed below.

The first test has as its target T1, 5-LOX (Homo sapiens, UniProt P09917).
T1 construct: purchased Sigma-Aldrich (local distributor) 437996
T1 sequence (P09917 1-674): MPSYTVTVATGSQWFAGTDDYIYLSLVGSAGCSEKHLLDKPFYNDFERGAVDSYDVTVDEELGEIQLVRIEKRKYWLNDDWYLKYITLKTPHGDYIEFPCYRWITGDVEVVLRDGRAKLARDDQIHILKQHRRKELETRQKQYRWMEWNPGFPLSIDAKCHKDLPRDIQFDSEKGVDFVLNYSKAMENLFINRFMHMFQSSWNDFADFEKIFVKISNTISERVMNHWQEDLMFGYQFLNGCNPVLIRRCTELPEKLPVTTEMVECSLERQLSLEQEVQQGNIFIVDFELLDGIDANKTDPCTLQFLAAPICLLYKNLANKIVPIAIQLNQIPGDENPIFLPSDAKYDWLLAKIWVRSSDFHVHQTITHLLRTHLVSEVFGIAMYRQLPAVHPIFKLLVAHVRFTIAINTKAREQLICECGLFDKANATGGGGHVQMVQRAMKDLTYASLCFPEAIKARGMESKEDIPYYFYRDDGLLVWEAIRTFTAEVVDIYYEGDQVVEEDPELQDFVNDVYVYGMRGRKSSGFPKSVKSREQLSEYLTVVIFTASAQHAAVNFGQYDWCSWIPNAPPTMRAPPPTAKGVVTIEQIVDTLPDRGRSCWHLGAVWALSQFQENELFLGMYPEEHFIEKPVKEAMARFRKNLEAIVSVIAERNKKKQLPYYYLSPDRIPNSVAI
The test is described as follows: 5-Lipoxygenase (5-LOX) inhibition assay. Type of test: biochemical.
Details: not given
The procedure: The 5-LOX inhibitory experiments on H. digitata samples were carried out as per published protocol ([Pervaiz et al., 2022]). Several concentrations of plant samples were made, with concentrations ranging from 31.25 to 1,000 μg/mL. Thereafter, 5-LOX was primed with 10,000 U/mL solutions. Linoleic acid (80 mM) was used as the substrate. Likewise, 50 mM phosphate buffer with a pH of 6.3 was primed. Plant samples of varied quantities were dissolved in 250 µL of phosphate buffer, and then, 250 µL of the lipoxygenase enzyme solution was added and incubated for 5 min at room temperature. A volume of 1,000 µL of the substrate solution with a concentration of 0.6 mM was added to the enzyme solution and shaken. The absorbance at 234 nm was observed. All of the tests were conducted three times. In this test, zileuton served as a positive control. The percentage inhibition was determined using the following equation: Percentage Inhibition=Control Abs. −Sample Abs. /Control Abs. ×100.
The IC50 values were derived by plotting the inhibitions against the concentrations of the tested sample solution.
`C=Cc1cc(OC)c(O)c(OC)c1` [Compound 5, 2,6-dimethoxy-4-vinylphenol]: inhibition was half-maximal at 171 µM (IC50).

In the case of `Cc1cnc(O)nc1O` [Compound 1, 5-methylpyrimidine-24,4-diol], the IC50 is 58.7 µM.

Staying with this test, now noted: 62.50 μg/mL; read-out: % 5-LOX inhibitions.
With `C=Cc1cc(OC)c(O)c(OC)c1` [Compound 5, 2,6-dimethoxy-4-vinylphenol], the inhibition at 62.5 µg/mL was found to be 49.9 ± 0.65%.

Regarding `Cc1cnc(O)nc1O` [Compound 1, 5-methylpyrimidine-24,4-diol], the inhibition at 62.5 µg/mL was 65.68 ± 0.64%.

Staying with this test, now noted: 125 µg/mL; read-out: % 5-LOX inhibitions.
For the compound `C=Cc1cc(OC)c(O)c(OC)c1` [Compound 5, 2,6-dimethoxy-4-vinylphenol], the inhibition at 125 µg/mL worked out at 57.2 ± 0.57%.

Regarding `Cc1cnc(O)nc1O` [Compound 1, 5-methylpyrimidine-24,4-diol], the inhibition at 125 µg/mL amounted to 71.42 ± 0.46%.

The same test, now with this note: 250 µg/mL; read-out: % 5-LOX inhibitions.
As for `C=Cc1cc(OC)c(O)c(OC)c1` [Compound 5, 2,6-dimethoxy-4-vinylphenol], the inhibition at 250 µg/mL came out at 65.5 ± 1.04%.

As to `Cc1cnc(O)nc1O` [Compound 1, 5-methylpyrimidine-24,4-diol], the inhibition at 250 µg/mL worked out at 76.53 ± 0.41%.

The test is the same for the next values; noted with them: 500 µg/mL; read-out: % 5-LOX inhibitions.
As for `C=Cc1cc(OC)c(O)c(OC)c1` [Compound 5, 2,6-dimethoxy-4-vinylphenol], the inhibition at 500 µg/mL was determined as 71.3 ± 1.11%.

`Cc1cnc(O)nc1O` [Compound 1, 5-methylpyrimidine-24,4-diol]: the inhibition at 500 µg/mL is 82.45 ± 0.55%.

Staying with this test, now noted: 1,000 μg/mL; listed as Comp 5.
Turning to `C=Cc1cc(OC)c(O)c(OC)c1` [Compound 5, 2,6-dimethoxy-4-vinylphenol], the “% 5-LOX inhibitions” value is 76.7 ± 0.66 %.

The test is the same for the next values; noted with them: 1,000 µg/mL; read-out: % 5-LOX inhibitions.
`C=Cc1cc(OC)c(O)c(OC)c1` [Compound 5, 2,6-dimethoxy-4-vinylphenol]: the inhibition at 1000 µg/mL is 84.83 ± 0.62%.

`Cc1cnc(O)nc1O` [Compound 1, 5-methylpyrimidine-24,4-diol]: the inhibition at 1000 µg/mL was determined as 87.63 ± 0.64%.

Another test concerns the target T2, COX-2 (Homo sapiens, UniProt P35354).
T2 construct: purchased Sigma-Aldrich (local distributor) C0858
T2 sequence (P35354 18-604): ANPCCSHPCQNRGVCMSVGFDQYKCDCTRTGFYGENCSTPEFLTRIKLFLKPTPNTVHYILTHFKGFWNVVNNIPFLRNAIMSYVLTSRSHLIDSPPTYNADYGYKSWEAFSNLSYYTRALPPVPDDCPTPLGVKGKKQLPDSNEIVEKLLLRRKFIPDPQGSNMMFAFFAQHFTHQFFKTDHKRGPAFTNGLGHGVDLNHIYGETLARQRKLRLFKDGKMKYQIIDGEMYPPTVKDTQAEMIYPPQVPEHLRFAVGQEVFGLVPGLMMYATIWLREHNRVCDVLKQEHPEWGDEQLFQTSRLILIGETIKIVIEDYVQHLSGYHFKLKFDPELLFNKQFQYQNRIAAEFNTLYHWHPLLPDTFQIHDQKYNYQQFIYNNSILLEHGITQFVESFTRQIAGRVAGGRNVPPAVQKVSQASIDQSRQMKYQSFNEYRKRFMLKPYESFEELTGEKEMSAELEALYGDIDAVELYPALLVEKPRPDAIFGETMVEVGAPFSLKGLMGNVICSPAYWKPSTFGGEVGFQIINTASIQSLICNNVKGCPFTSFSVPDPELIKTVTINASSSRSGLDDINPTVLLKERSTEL
The test is described as follows: Cyclooxygenase COX-2 inhibition assay. Type of test: biochemical.
Details: not given
The procedure:
The COX-2 enzyme solution with 300 U/mL concentrations was formed. The enzyme solution (10 µL) was maintained on ice up to 10 min for activation. Moreover, this solution was added to a 50 µL co-factor solution containing 1 mM hematin, 0.9 mM glutathione, and 0.24 mM N,N,N,N-tetramethyl-p-phenylenediamine dihydrochloride (TMPD) in 0.1 M Tris HCl buffer at pH 8.0. […] Likewise, 30 mM of arachidonic acid (20 µL) was mixed for initiating the reaction and incubated for 4–5 min. Following incubation, absorbance of the samples was determined using a UV-visible spectrophotometer at 570 nm. The percentage inhibition of the COX-2 enzyme was determined through the absorbance value per unit time. Enzyme inhibition against various concentrations of investigated samples was used to calculate the IC50 values.
`C=Cc1cc(OC)c(O)c(OC)c1` [Compound 5, 2,6-dimethoxy-4-vinylphenol] showed an IC50 of 217 µM.

For the compound `Cc1cnc(O)nc1O` [Compound 1, 5-methylpyrimidine-24,4-diol], inhibition was half-maximal at 84.8 µM (IC50). This IC50 lies about 2.6-fold lower than the previous one.

Still in this test, the particulars now being: 62.50 μg/mL.
In turn, `C=Cc1cc(OC)c(O)c(OC)c1` [Compound 5, 2,6-dimethoxy-4-vinylphenol] registered an inhibition at 62.5 µg/mL of 46.9 ± 0.42%.

The compound `Cc1cnc(O)nc1O` [Compound 1, 5-methylpyrimidine-24,4-diol] registered an inhibition at 62.5 µg/mL of 61.1 ± 0.7%.

The test is the same for the next values; noted with them: 125 µg/mL.
`C=Cc1cc(OC)c(O)c(OC)c1` [Compound 5, 2,6-dimethoxy-4-vinylphenol] showed an inhibition at 125 µg/mL of 56.4 ± 0.63%.

Regarding `Cc1cnc(O)nc1O` [Compound 1, 5-methylpyrimidine-24,4-diol], the inhibition at 125 µg/mL was 66.4 ± 0.7%.

Still in this test, the particulars now being: 250 µg/mL.
With `C=Cc1cc(OC)c(O)c(OC)c1` [Compound 5, 2,6-dimethoxy-4-vinylphenol], the inhibition at 250 µg/mL was found to be 61 ± 0.33%.

On to `Cc1cnc(O)nc1O` [Compound 1, 5-methylpyrimidine-24,4-diol], for which the inhibition at 250 µg/mL stood at 72.7 ± 0.51%.

The same test, now with this note: 500 µg/mL.
On to `C=Cc1cc(OC)c(O)c(OC)c1` [Compound 5, 2,6-dimethoxy-4-vinylphenol], for which the inhibition at 500 µg/mL is 66.2 ± 0.73%.

For the compound `Cc1cnc(O)nc1O` [Compound 1, 5-methylpyrimidine-24,4-diol], the inhibition at 500 µg/mL was found to be 78.83 ± 0.73%.

The test is the same for the next values; noted with them: 1,000 µg/mL.
With `Cc1cnc(O)nc1O` [Compound 1, 5-methylpyrimidine-24,4-diol], the inhibition at 1000 µg/mL came out at 83.13 ± 0.8%.

Test system in a further test: not listed separately
The test can be described thus: H2O2 free radical scavenging activity.
Details: not given
The procedure: The antioxidant potential of isolated compounds was determined using this approach. In a phosphate buffer solution (50 mM, pH 7.40), a solution of H2O2 (2 mM) was produced. The crude extract (0.10 mL) was measured in a test tube and diluted to 0.40 mL using phosphate buffer. Thereafter, H2O2 (0.60 mL) was added and thoroughly mixed. […] 230 nm was used to measure the absorbance of the sample and the standard ([Sadiq et al., 2018]). For all the crude samples, the exact process was followed. According to the procedure, the inhibition percentage and IC50 values were computed.
Take `C=Cc1cc(OC)c(O)c(OC)c1` [Compound 5, 2,6-dimethoxy-4-vinylphenol]: the “H2O2 IC50” value is given as 35 µg/mL.

`Cc1cnc(O)nc1O` [Compound 1, 5-methylpyrimidine-24,4-diol]: the “H2O2 IC50” value worked out at 05 µg/mL.

Staying with this test, now noted: 62.5 µg/mL.
Take `C=Cc1cc(OC)c(O)c(OC)c1` [Compound 5, 2,6-dimethoxy-4-vinylphenol]: the H2O2 % inhibition stood at 57.51 ± 0.62 %.

As for `Cc1cnc(O)nc1O` [Compound 1, 5-methylpyrimidine-24,4-diol], the H2O2 % inhibition is on record as 69.91 ± 1.30 ^ns %.

Staying with this test, now noted: 125 µg/mL.
With `C=Cc1cc(OC)c(O)c(OC)c1` [Compound 5, 2,6-dimethoxy-4-vinylphenol], the H2O2 % inhibition is reported as 62.46 ± 0.47 %.

With `Cc1cnc(O)nc1O` [Compound 1, 5-methylpyrimidine-24,4-diol], the H2O2 % inhibition was 71.76 ± 0.61 ^ns %.

Still in this test, the particulars now being: 250 µg/mL.
Regarding `C=Cc1cc(OC)c(O)c(OC)c1` [Compound 5, 2,6-dimethoxy-4-vinylphenol], the H2O2 % inhibition was determined as 66.68 ± 0.64 %.

`Cc1cnc(O)nc1O` [Compound 1, 5-methylpyrimidine-24,4-diol]: the H2O2 % inhibition is reported as 76.87 ± 1.27 ^ns %.

Staying with this test, now noted: 500 µg/mL.
Take `C=Cc1cc(OC)c(O)c(OC)c1` [Compound 5, 2,6-dimethoxy-4-vinylphenol]: the H2O2 % inhibition stood at 70.53 ± 0.41 %.

`Cc1cnc(O)nc1O` [Compound 1, 5-methylpyrimidine-24,4-diol]: the H2O2 % inhibition is 81.13 ± 0.20^ns %.

Still in this test, the particulars now being: 1,000 µg/mL.
As for `C=Cc1cc(OC)c(O)c(OC)c1` [Compound 5, 2,6-dimethoxy-4-vinylphenol], the H2O2 % inhibition is 76.42 ± 0.46 %.

As to `Cc1cnc(O)nc1O` [Compound 1, 5-methylpyrimidine-24,4-diol], the H2O2 % inhibition is given as 85.20 ± 0.23^ns %.
